Source: US20130065936A1, “MODULATION OF BIOACTIVE EPOXY-FATTY ACID LEVELS BY PHOSPHODIESTERASE INHIBITORS” (THE REGENTS OF THE UNIVERSITY OF CALIFORNIA, priority 2010, published 2013)
Where two headings read alike, the source gives them in different places.

Columns and labels:
[1] = target: T1, recombinant mouse sEH (Mus musculus, UniProt P34914); experiment: Potency on recombinant mouse sEH, fluorescent substrate; type: biochemical
T1 construct: made in house
T1 sequence (P34914 1-554): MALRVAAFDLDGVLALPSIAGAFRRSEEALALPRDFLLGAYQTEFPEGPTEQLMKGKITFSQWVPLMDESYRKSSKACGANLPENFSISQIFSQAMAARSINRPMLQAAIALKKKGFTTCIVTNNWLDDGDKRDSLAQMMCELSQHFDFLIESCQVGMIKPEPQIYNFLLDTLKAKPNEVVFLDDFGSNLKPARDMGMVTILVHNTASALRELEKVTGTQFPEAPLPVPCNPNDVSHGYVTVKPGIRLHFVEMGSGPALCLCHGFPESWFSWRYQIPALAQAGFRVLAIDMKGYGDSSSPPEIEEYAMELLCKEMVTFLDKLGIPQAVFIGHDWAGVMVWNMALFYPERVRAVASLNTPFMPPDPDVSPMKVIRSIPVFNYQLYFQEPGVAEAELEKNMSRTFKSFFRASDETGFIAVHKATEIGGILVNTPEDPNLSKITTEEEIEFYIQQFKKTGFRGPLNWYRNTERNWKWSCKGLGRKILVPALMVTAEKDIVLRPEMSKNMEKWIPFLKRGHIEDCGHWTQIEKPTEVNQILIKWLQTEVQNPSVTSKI

[2] = target: T2, recombinant rat sEH (Rattus norvegicus, UniProt P80299); experiment: Potency on recombinant rat sEH, fluorescent substrate; type: biochemical
T2 construct: made in house
T2 sequence (P80299 1-554): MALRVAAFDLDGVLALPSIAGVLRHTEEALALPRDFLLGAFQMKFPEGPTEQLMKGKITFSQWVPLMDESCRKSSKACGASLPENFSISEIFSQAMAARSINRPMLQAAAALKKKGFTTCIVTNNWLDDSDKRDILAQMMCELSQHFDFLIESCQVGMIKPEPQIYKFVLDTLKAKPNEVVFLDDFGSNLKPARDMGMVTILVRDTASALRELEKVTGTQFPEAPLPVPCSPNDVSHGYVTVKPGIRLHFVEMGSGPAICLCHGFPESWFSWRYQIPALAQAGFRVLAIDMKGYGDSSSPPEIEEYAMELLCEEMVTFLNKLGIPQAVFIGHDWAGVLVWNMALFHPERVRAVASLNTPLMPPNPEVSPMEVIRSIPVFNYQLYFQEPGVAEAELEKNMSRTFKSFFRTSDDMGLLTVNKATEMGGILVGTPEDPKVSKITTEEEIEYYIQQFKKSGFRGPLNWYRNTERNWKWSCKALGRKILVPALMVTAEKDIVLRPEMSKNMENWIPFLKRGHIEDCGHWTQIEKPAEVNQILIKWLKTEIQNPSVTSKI

[3] = tested on: endogenous oxylipin sEH substrates and products in rat plasma; experiment: Oxylipin analysis in rat plasma after sEHI / PDE inhibitor administration (LC-ESI-MS/MS); type: in vivo; conditions: rat plasma 60 min after s.c., TPAU 10 mg/kg, rolipram 1 mg/kg;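 further: plasma from tail vein blood, oxylipins quantified by LC-ESI-MS/MS against deuterated internal standards following solid-phase extraction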
[4] = tested on: Sprague-Dawley rats; experiment: Acute nociceptive responses in healthy rats, Hargreaves thermal withdrawal latency; type: in vivo, rat; conditions: healthy rats
[5] = tested on: Sprague-Dawley rats; experiment: Open field activity; type: in vivo, rat; conditions: 1 h following administration
Description: For the measurement of open field activity animals were placed in an acrylic chamber (40×40×20 cm length×width×height) divided into 100 cm^2 (10×10 cm) sections. The number of crossings were recorded when both hind paws crossed into a neighboring cell.

## COc1ccc(C2CNC(=O)C2)cc1OC1CCCC1 (stereo not shown) [Rolipram]
[1]
  IC50: > 10 µM
[2]; 10 and 100 μM, recombinant rat enzyme
  inhibitory activity in the sEH assay: No inhibition was observed
[2]; read-out: IC50 on recombinant rat sEH
  IC50: > 100 µM
[2]; recombinant sEH, read-out: IC50 Rat
  IC50: > 10 µM
[3]
  8(9)-EpETE: 1.25 nM
  8(9)-EpETrE: 9.63 nM
  8,9-DiHETE: 0.07 nM
  8,9-DiHETrE: 0.45 nM
  9(10)-EpOME: 55.27 nM
  9,10-DiHOME: 24.32 nM
  10(11)-EpDPE: 7.51 nM
  10,11-DiHDPE: 0.33 nM
  11(12)-EpETE: 0.93 nM
  11(12)-EpETrE: 13.15 nM
  11,12-DiHETE: 0.20 nM
  11,12-DiHETrE: 1.67 nM
  12(13)-EpOME: 36.32 nM
  12,13-DiHOME: 42.01 nM
  13(14)-EpDPE: 3.88 nM
  13,14-DiHDPE: 0.37 nM
  14(15)-EpETE: 0.84 nM
  14(15)-EpETrE: 8.52 nM
  14,15-DiHETE: 0.28 nM
  14,15-DiHETrE: 1.74 nM
  16(17)-EpDPE: 3.93 nM
  16,17-DiHDPE: 0.72 nM
  17(18)-EpETE: 1.76 nM
  17,18-DiHETE: 0.77 nM
  19(20)-EpDPE: 7.46 nM
  19,20-DiHDPE: 2.13 nM
  total Dihydroxyeicosanoid: 75.1 nM
  total Epoxyeicosanoid: 150.4 nM
[3]; listed as rolipram
  12(13)-EpOME: no increase
  12,13-DiHOME: significant elevation
[4]; 2 and 4 h after treatments
  thermal withdrawal latency: devoid of effect on withdrawal latency
[4]; s.c., about 1 h after administration
  thermal withdrawal latency / pain related behavior, change from predrug baseline: effective in elevating pain thresholds
[5]
  voluntary movement in an open-field chamber (motor depressant effect): significant and dose-dependent decrease in voluntary movement
